For six molecules, EC50 and Emax results are on record in patent US11725036B2, “Modified lipidated relaxin B chain peptides and their therapeutic use” (Sanofi, priority 2018, dated 2023).

Starred links: 1 amine or outer side, 2 acyl side, 3 side chain; linkers in the order of their positions; H or OH if unused. Non-standard residues stand in square brackets, D forms with d. Residues, ends and D or L forms follow the SMILES beside them. Groups on a side chain read outwards from the residue. *: point of attachment. X7 = CCCCCCCCCCCCCCCC(=O)N[C@@H](CCC(=O)N[C@@H](CCC(=O)N[C@@H](CCC(=O)NCCCOCCOCCOCCCNC(=O)COCC(=O)NCCCOCCOCCOCCCNC(=O)COCC(=O)NCCCOCCOCCOCCCNC(=O)COCC(=O)*)C(=O)O)C(=O)O)C(=O)O; X1 = CCCCCCCCCCCCCCCC(=O)N[C@@H](CCC(=O)N[C@@H](CCC(=O)N[C@@H](CCC(=O)NCCCOCCOCCOCCCNC(=O)CCC(=O)NCCCOCCOCCOCCCNC(=O)CCC(=O)NCCCOCCOCCOCCCN*)C(=O)O)C(=O)O)C(=O)O; γGlu = O=C(O)[C@H](CCC(=O)[*:2])N[*:1]; Palmitoyl = CCCCCCCCCCCCCCCC(=O)*; Suc = O=C(CCC(=O)[*:2])[*:1]; αMeK = C[C@](N)(CCCCN)C(=O)O; hLys = NCCCCC[C@H](N)C(=O)O; AEEA = NCCOCCOCC(=O)O; Aib = CC(C)(N)C(=O)O

The test addresses T1, RXFP1 (Homo sapiens, UniProt Q9HBX9).
T1 construct: OVCAR5 cells expressing endogenous RXFP1; endogenous in cells; host or cells: OVCAR5
T1 sequence (Q9HBX9 1-757): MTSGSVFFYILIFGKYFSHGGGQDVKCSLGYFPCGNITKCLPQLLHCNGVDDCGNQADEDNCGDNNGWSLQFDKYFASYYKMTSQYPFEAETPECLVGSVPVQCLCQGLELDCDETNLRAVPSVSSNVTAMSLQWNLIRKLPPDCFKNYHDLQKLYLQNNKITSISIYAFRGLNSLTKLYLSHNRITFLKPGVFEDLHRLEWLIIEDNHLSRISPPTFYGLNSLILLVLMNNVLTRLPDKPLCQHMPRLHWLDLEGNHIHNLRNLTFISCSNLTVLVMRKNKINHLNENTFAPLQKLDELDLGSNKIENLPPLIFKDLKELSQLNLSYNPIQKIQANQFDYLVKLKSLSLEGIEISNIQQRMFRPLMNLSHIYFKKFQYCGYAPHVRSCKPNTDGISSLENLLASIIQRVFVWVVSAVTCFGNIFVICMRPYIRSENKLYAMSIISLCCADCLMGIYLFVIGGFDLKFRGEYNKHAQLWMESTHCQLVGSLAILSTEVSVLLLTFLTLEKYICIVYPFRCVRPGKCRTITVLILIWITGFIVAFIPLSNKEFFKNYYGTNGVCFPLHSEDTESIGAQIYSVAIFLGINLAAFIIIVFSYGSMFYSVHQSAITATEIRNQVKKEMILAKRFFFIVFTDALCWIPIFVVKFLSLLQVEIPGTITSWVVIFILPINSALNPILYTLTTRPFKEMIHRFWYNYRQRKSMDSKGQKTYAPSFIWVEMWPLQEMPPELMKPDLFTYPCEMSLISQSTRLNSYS
Put plainly: OVCAR5 cAMP assay (HTRF). Type of test: cell-based. As to conditions: for EC50: OVCAR 5 cells expressing endogenous RXFP1, cAMP readout; for Emax: OVCAR 5 cells, maximal cAMP relative to H2-relaxin. The source says:
OVCAR5 cells expressing endogenous RXFP1 were used to test RXP1 agonist properties of peptides of the invention, and in particular of the peptides of sequence SEQ ID NO: 1-97.
Since RXFP1 is a Gs coupled GPCR, cAMP was used as readout of RXFP1 activation.
Isobutyl Methyl Xanthine (IBMX) was used to inhibit phosphodiesterase activity facilitating cAMP measurements. HTRF (Homogenous Time Resolved Fluorescence) technology was used to detect cAMP due to its great sensitivity.
In summary, OVCAR5 were grown in regular medium (RPMI) containing 10% fetal calf serum (FCS) and 1% antibiotics (penicillin/streptomycin).
Before the experiments, cells were detached with accutase and incubated for 40 minutes at 37° C. with 1 mM (3-isobutyl-1-methylxanthine) IBMX.
Cells were then distributed in 384 black well plates containing increasing concentrations of the different peptides in a fix volume of medium (without FCS).
After an incubation of 30 min at 37° C. in an humid incubator in 5% CO2, the reaction was stopped by adding a fixed volume of a solution containing a lysis buffer and cAMP-D2 (cAMP labeled with the dye d2) and the anti cAMP antibody linked to Europium and used for cAMP detection.
Readout of the experiment were performed on a fluorimeter allowing HTRF measurement. Activation curves were generated by plotting the intracellular value of cAMP versus log 10 of the compound concentration.
The 50% activation concentration (EC50) was calculated by nonlinear regression using the sigmoidal dose-response (variable slope) equation with Prism 5 software.
Emax % was determined as the maximal intracellular value of cAMP for test compound (upper limit of cAMP vs concentration curve) divided by the maximal intracellular value of cAMP for H2-relaxin determined in the same test occasion multiplied by 100. Emax %=100×[cAMPtest cpd]/[cAMPH2-Rlx]
In general terms: Cyclic AMP is a second messenger, typically raised through Gs and lowered through Gi signalling.

One may read the EC50 as the concentration giving half of the maximal effect. Higher therefore signals lower potency in that assay. By Emax is commonly meant the greatest response seen or fitted, relative to the assay's reference. The molecule `CCCCCCCCCCCCCCCC(=O)N[C@@H](CCC(=O)N[C@@H](CCC(=O)N[C@@H](CCC(=O)NCCCOCCOCCOCCCNC(=O)CCC(=O)NCCCOCCOCCOCCCNC(=O)CCC(=O)NCCCOCCOCCOCCCNC(=O)CCC(=O)NCCCC[C@H](NC(=O)CNC(=O)[C@H](CCC(=O)O)NC(=O)C(C)(C)NC(=O)C(C)(C)NC(=O)[C@@H](NC(=O)[C@H](CCCCNC(C)=O)NC(=O)[C@H](C)NC(=O)[C@H](CCCNC(=N)N)NC(=O)[C@@H](NC(=O)[C@H](CCCCN)NC(=O)[C@H](CCC(=O)O)NC(=O)[C@H](CCCNC(=N)N)NC(=O)CNC(=O)[C@H](CCC(=O)O)NC(=O)[C@H](CC(C)C)NC(C)=O)C(C)C)[C@@H](C)CC)C(=O)N[C@@H](CO)C(=O)N[C@H](C(=O)N[C@@H](Cc1ccccc1)C(=O)N[C@H](CO)C(=O)N[C@@H](CCCCN)C(=O)N[C@@H](CCCNC(=N)N)C(=O)N[C@@H](C)C(=O)N[C@@H](CCCCNC(C)=O)C(N)=O)[C@@H](C)O)C(=O)O)C(=O)O)C(=O)O` [compound 14] (Ac-LEGREKVRAK(Ac)I[Aib][Aib]EGK([Suc-X1])STF[dS]KRAK(Ac)-NH2) displayed an EC50 of 3.2 nM and an Emax of 90%.

Turning to `CCCCCCCCCCCCCCCC(=O)N[C@@H](CCC(=O)N[C@@H](CCC(=O)N[C@@H](CCC(=O)NCCCOCCOCCOCCCNC(=O)CCC(=O)NCCCOCCOCCOCCCNC(=O)CCC(=O)NCCCOCCOCCOCCCNC(=O)CCC(=O)NCCCC[C@H](NC(=O)CNC(=O)[C@H](CCC(=O)O)NC(=O)C(C)(C)NC(=O)C(C)(C)NC(=O)[C@@H](NC(=O)[C@H](CCCCNC(C)=O)NC(=O)[C@H](C)NC(=O)[C@H](CCCNC(=N)N)NC(=O)[C@@H](NC(=O)[C@H](CCCCN)NC(=O)[C@H](CCC(=O)O)NC(=O)[C@H](CCCNC(=N)N)NC(=O)CNC(=O)[C@H](CCC(=O)O)NC(=O)[C@H](CC(C)C)NC(C)=O)C(C)C)[C@@H](C)CC)C(=O)N[C@@H](CO)C(=O)N[C@H](C(=O)N[C@@H](Cc1ccccc1)C(=O)NC(C)(C)C(=O)N[C@@H](CCCCN)C(=O)N[C@@H](CCCNC(=N)N)C(=O)N[C@@H](C)C(=O)N[C@@H](CCCCNC(C)=O)C(N)=O)[C@@H](C)O)C(=O)O)C(=O)O)C(=O)O` [compound 15] (Ac-LEGREKVRAK(Ac)I[Aib][Aib]EGK([Suc-X1])STF[Aib]KRAK(Ac)-NH2), the midpoint of the response, the EC50, lay at 2.1 nM and the Emax was found to be 85%.

`CCCCCCCCCCCCCCCC(=O)N[C@@H](CCC(=O)N[C@@H](CCC(=O)N[C@@H](CCC(=O)NCCOCCOCC(=O)NCCOCCOCC(=O)NCCOCCOCC(=O)NCCCC[C@H](NC(=O)CNC(=O)[C@H](CCC(=O)O)NC(=O)C(C)(C)NC(=O)C(C)(C)NC(=O)[C@@H](NC(=O)[C@H](CCCCNC(C)=O)NC(=O)[C@H](C)NC(=O)[C@H](CCCNC(=N)N)NC(=O)[C@@H](NC(=O)[C@H](CCCCN)NC(=O)[C@H](CCC(=O)O)NC(=O)[C@H](CCCNC(=N)N)NC(=O)CNC(=O)[C@H](CCC(=O)O)NC(=O)[C@H](CC(C)C)NC(C)=O)C(C)C)[C@@H](C)CC)C(=O)N[C@@H](CO)C(=O)N[C@H](C(=O)N[C@@H](Cc1c[nH]c2ccccc12)C(=O)N[C@@H](CO)C(=O)NC(C)(C)C(=O)N[C@@H](CCCNC(=N)N)C(=O)N[C@@H](CCCCN)C(=O)N[C@@H](CCCCNC(C)=O)C(N)=O)[C@@H](C)O)C(=O)O)C(=O)O)C(=O)O` [compound 19] (Ac-LEGREKVRAK(Ac)I[Aib][Aib]EGK([AEEA-AEEA-AEEA-γGlu-γGlu-γGlu-Palmitoyl])STWS[Aib]RKK(Ac)-NH2) returned an EC50 of 11.5 nM and a maximum response (Emax) of 94%.

`CCCCCCCCCCCCCCCC(=O)N[C@@H](CCC(=O)N[C@@H](CCC(=O)N[C@@H](CCC(=O)NCCCOCCOCCOCCCNC(=O)COCC(=O)NCCCOCCOCCOCCCNC(=O)COCC(=O)NCCCOCCOCCOCCCNC(=O)COCC(=O)NCCCC[C@H](NC(=O)CNC(=O)[C@H](CCC(=O)O)NC(=O)C(C)(C)NC(=O)C(C)(C)NC(=O)[C@@H](NC(=O)[C@H](CCCCNC(C)=O)NC(=O)[C@H](C)NC(=O)[C@H](CCCNC(=N)N)NC(=O)[C@@H](NC(=O)[C@H](CCCCN)NC(=O)[C@H](CCC(=O)O)NC(=O)[C@H](CCCNC(=N)N)NC(=O)CNC(=O)[C@H](CCC(=O)O)NC(=O)[C@H](CC(C)C)NC(C)=O)C(C)C)[C@@H](C)CC)C(=O)N[C@@H](CO)C(=O)N[C@H](C(=O)N[C@@H](Cc1ccccc1)C(=O)N[C@@H](CO)C(=O)N[C@@](C)(CCCCN)C(=O)N[C@@H](CCCNC(=N)N)C(=O)N[C@@H](C)C(=O)N[C@@H](CCCCNC(C)=O)C(N)=O)[C@@H](C)O)C(=O)O)C(=O)O)C(=O)O` [compound 22] (Ac-LEGREKVRAK(Ac)I[Aib][Aib]EGK(X7)STFS[αMeK]RAK(Ac)-NH2) came in with an EC50 of 1 nM and an Emax of 92%.

`CCCCCCCCCCCCCCCC(=O)N[C@@H](CCC(=O)N[C@@H](CCC(=O)N[C@@H](CCC(=O)NCCCOCCOCCOCCCNC(=O)CCC(=O)NCCCOCCOCCOCCCNC(=O)CCC(=O)NCCCOCCOCCOCCCNC(=O)CCC(=O)NCCCC[C@H](NC(=O)CNC(=O)[C@H](CCC(=O)O)NC(=O)C(C)(C)NC(=O)C(C)(C)NC(=O)[C@@H](NC(=O)[C@H](CCCCNC(C)=O)NC(=O)[C@H](C)NC(=O)[C@H](CCCNC(=N)N)NC(=O)[C@@H](NC(=O)[C@H](CCCNC(=N)N)NC(=O)[C@H](CCC(=O)O)NC(=O)[C@H](CCCNC(=N)N)NC(=O)CNC(=O)[C@H](CCC(=O)O)NC(=O)[C@H](CC(C)C)NC(C)=O)C(C)C)[C@@H](C)CC)C(=O)N[C@@H](CO)C(=O)N[C@H](C(=O)N[C@@H](Cc1ccccc1)C(=O)N[C@@H](CO)C(=O)N[C@@](C)(CCCCN)C(=O)N[C@@H](CCCNC(=N)N)C(=O)N[C@@H](C)C(=O)N[C@@H](CCCCNC(C)=O)C(N)=O)[C@@H](C)O)C(=O)O)C(=O)O)C(=O)O` [compound 27] (Ac-LEGRERVRAK(Ac)I[Aib][Aib]EGK([Suc-X1])STFS[αMeK]RAK(Ac)-NH2): the midpoint of the response, the EC50, lay at 1.8 nM and the Emax is 98%.

For `CCCCCCCCCCCCCCCC(=O)N[C@@H](CCC(=O)N[C@@H](CCC(=O)N[C@@H](CCC(=O)NCCCOCCOCCOCCCNC(=O)CCC(=O)NCCCOCCOCCOCCCNC(=O)CCC(=O)NCCCOCCOCCOCCCNC(=O)CCC(=O)NCCCC[C@H](NC(=O)CNC(=O)[C@H](CCC(=O)O)NC(=O)C(C)(C)NC(=O)C(C)(C)NC(=O)[C@@H](NC(=O)[C@H](CCCCNC(C)=O)NC(=O)[C@H](C)NC(=O)[C@H](CCCNC(=N)N)NC(=O)[C@@H](NC(=O)[C@H](CCCCCN)NC(=O)[C@H](CCC(=O)O)NC(=O)[C@H](CCCNC(=N)N)NC(=O)CNC(=O)[C@H](CCC(=O)O)NC(=O)[C@H](CC(C)C)NC(C)=O)C(C)C)[C@@H](C)CC)C(=O)N[C@@H](CO)C(=O)N[C@H](C(=O)N[C@@H](Cc1ccccc1)C(=O)N[C@@H](CO)C(=O)N[C@@](C)(CCCCN)C(=O)N[C@@H](CCCNC(=N)N)C(=O)N[C@@H](C)C(=O)N[C@@H](CCCCNC(C)=O)C(N)=O)[C@@H](C)O)C(=O)O)C(=O)O)C(=O)O` [compound 28] (Ac-LEGRE[hLys]VRAK(Ac)I[Aib][Aib]EGK([Suc-X1])STFS[αMeK]RAK(Ac)-NH2), a half-maximal effect (EC50) was put at 0.62 nM and the maximal response (Emax) worked out at 88%.
